Test system: hiPSC-CM / fibroblast graft (bioengineered tissue)
Experiment: ECG recording of bioengineered tissue on multi-electrode array with pharmacological perturbations
Format: cell-based, human
Conditions: for change of heart rate of the construct: continuous ECG recording, FIG. 8; for change of QT interval / change of R-R interval (heart rate-equivalent): single bioengineered tissue on multi-electrode array vs baseline, FIG. 10
Description: Methods of graft engineering: Human dermal fibroblasts were cultured into a vicryl (polygalctin 910) knitted mesh until the mesh was fully confluent with fibroblasts. Human induced pluripotent stem cell derived cardiomyocytes (hiPSC-CMs) were seeded onto the fibroblasts grafts using centrifugal force (1300 rpms for 5 min). All cell cultures were maintained at […] and 5% CO2 with media changed every 24-48 hrs. Fibroblasts were maintained with 10% FBS in DMEM, hiPSC-CMs were maintained with RPMI+B27. Grafts were either used fresh or after cryopreservation. Fresh grafts were assayed 48 hrs after hiPSC-CM engraftment. Cryopreserved grafts were assayed 2 days post reconstitution. Axion System Methods: […] diameter circular grafts were transferred to the Axion culture well, hiPSC-CM side down and three small 5 mm×1 mm weights were placed on the surface to enhance contact with the electrodes. Cultures were maintained at 37° C. and 5% CO2. Data were obtained at baseline, and then with pharmacological perturbations. NeuroNexus Methods: 1.6 cm diameter circular grafts were placed hiPSC-CM side down on the recording array. Cultures were maintained at 37° C. but no control was available for CO2. […] To enhance contact, the volume of medium in the culture well was reduced from 1.5 ml to 0.25-0.5 ml. Data were obtained at baseline, and then with pharmacological perturbations.

SMILES | change of heart rate of the construct | change of QT interval | change of R-R interval (heart rate-equivalent)
CC(C)NCC(O)c1ccc(O)c(O)c1 (stereo not drawn) [Isoproterenol] | increase | decrease | decrease
CC(C)(C)NC[C@H](O)COc1nsnc1N1CCOCC1 [Timolol] | decrease | increase | increase
